Measured values as given in US20240173440A1, “HIGH PURITY COPPER RADIOPHARMACEUTICAL COMPOSITIONS AND DIAGNOSTIC AND THERAPEUTIC USES THEREOF” (Nuclidium AG, priority 2022, published 2024).

Columns and labels:
PSMA = PSMA (Homo sapiens (Human), UniProt Q04609); experiment: PET/CT imaging in a patient with metastatic prostate cancer; format: in vivo; details: metastatic castration resistant prostate cancer, imaging 3 hours after administration
Method: Radiopharmaceutical preparation: The reaction is carried out in a GE Healthcare FASTlab 2 module. A 40 μg (28 nmol) aliquot of lyophilized NODAGA-PSMA-I&T (piCHEM, Austria) was dissolved in up to 6 mL 0.5 M sodium acetate (pH 8) and ascorbic acid (20 μg/mL), and transferred to a reaction vial. Then [^61Cu]CuCl2 in 0.05 M hydrochloric acid (0.3-1.0 GBq/mL) (3 mL) was added to the NODAGA-PSMA-I&T solution, reaching a pH between 4.5 and 6.5. The obtained reaction solution was incubated for 10 min at room temperature (approx. 20-25° C.) and dispensed to the product vial (20 mL sterile evacuated vial) over a sterile Cathivex-GV 25 mm PVDF 0.22 μm filter. The product was finally diluted with 0.9% sodium chloride for injection (B. Braun, Germany) up to 12 mL. [^61Cu]Cu-NODAGA-PSMA-I&T is produced with high radiochemical purity (≥95%). Therefore, no further purification step is necessary. All the chemicals used are trace metal grade.
The patient was co-administered […] furosemide (Lasix®, Sanofi-Aventis, Frankfurt, Germany). The imaging was performed at 3 hours following radiotracer administration on a Biograph Vision 600 (Siemens, Germany) PET/CT scanner. These images, shown in FIG. 35, were obtained from the skull to mid-thigh and reconstructed into multiplanar PT, CT, and fused PET/CT images. CT was used for attenuation correction.

LNCaP cells = experiment: In vitro cellular uptake (cell surface and internalized fractions) in LNCaP cells; format: cell-based
Method: The cellular uptake was studied in vitro using intact cells seeded in 6-well plates overnight. On the day of the experiment, the cells were washed and incubated with each of the exemplified [^61Cu]Cu-radiotracer at different time points, either alone or in the presence of a blocking agent to distinguish between specific and non-specific uptake. At each investigated time point, the medium containing the unbound (free) radiotracer was removed, followed by two washing steps with ice-cold phosphate-buffered saline. The cells were then treated 2×5 min with ice-cold glycine solution (0.05 M, pH 2.8) to detach the cell surface-bound radiotracer (acid released). Afterwards, the cells containing the internalized radiotracer were detached with 1 M NaOH at 37° C. and collected for measurement. The amount of specific cell surface-bound and internalized radiotracer is expressed as percentage of the total applied activity, after subtracting the non-specific values.
2-(phosphonomethyl)-pentanedioic acid (2-PMPA, 10 μM) was used to determine non-specific binding (FIG. 14).
Cellular uptake and distribution between cell surface (cell membrane bound) and internalized fractions of ^61Cu-labeled PSMA-I&T constructs versus their ^68Ga counterparts (Table 19). The values are expressed as % of the applied activity and refer to the specific uptake calculated after subtracting the non-specific values (measured in the presence of 10 μM 2-PMPA) from the total values (specific=total−non specific).

Sequence of PSMA (Q04609 whole entry): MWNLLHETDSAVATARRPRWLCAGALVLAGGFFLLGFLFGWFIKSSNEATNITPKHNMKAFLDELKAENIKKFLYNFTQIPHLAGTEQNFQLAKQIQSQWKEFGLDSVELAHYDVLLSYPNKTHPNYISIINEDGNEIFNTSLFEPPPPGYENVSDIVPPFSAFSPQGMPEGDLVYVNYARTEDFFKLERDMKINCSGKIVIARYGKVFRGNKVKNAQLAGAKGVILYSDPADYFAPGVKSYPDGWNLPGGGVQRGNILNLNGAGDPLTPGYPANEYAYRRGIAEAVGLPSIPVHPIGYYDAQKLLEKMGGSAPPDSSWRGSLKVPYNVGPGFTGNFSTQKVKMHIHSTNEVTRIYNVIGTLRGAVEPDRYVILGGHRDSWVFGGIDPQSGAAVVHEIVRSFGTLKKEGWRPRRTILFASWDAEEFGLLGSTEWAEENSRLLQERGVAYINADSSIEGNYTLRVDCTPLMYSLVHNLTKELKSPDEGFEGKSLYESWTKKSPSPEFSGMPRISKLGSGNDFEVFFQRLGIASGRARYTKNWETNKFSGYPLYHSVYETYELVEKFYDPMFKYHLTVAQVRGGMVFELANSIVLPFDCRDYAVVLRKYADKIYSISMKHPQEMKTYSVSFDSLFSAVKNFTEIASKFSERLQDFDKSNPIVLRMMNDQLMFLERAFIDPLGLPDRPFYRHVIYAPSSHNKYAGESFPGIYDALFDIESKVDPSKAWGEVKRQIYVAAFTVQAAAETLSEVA

O=C(O)CC[C@H](NC(=O)N[C@@H](CCCCNC(=O)CCCCCCC(=O)NCCCC[C@@H](NC(=O)[C@@H](Cc1ccccc1)NC(=O)[C@@H](Cc1ccc(O)c(I)c1)NC(=O)CC[C@H](C(=O)O)N1CCN2CCN(CC1)CC(=O)[O][61Cu][O]C(=O)C2)C(=O)O)C(=O)O)C(=O)O [[^61Cu]Cu-NODAGA-PSMA-I&T]
tracer uptake on PET/CT in patient (PSMA): intense tracer uptake by multiple osseous, pelvic lymph node, and liver metastases | Cell surface fraction (LNCaP cells; 5 min, specific uptake): 4.3 ± 0.7 % of the applied activity | Internalized fraction (LNCaP cells; 5 min, specific uptake): 1.2 ± 0.2 % of the applied activity | Cell surface fraction (LNCaP cells; 15 min, specific uptake): 8.2 ± 1.0 % of the applied activity | Internalized fraction (LNCaP cells; 15 min, specific uptake): 3.9 ± 0.4 % of the applied activity | Cell surface fraction (LNCaP cells; 30 min, specific uptake): 10.7 ± 1.0 % of the applied activity | Internalized fraction (LNCaP cells; 30 min, specific uptake): 7.0 ± 1.1 % of the applied activity | Cell surface fraction (LNCaP cells; 60 min, specific uptake): 10.8 ± 1.8 % of the applied activity | Internalized fraction (LNCaP cells; 60 min, specific uptake): 11.7 ± 1.6 % of the applied activity | Cell surface fraction (LNCaP cells; 120 min, specific uptake): 10.2 ± 1.8 % of the applied activity | Internalized fraction (LNCaP cells; 120 min, specific uptake): 17.6 ± 2.8 % of the applied activity | Internalized fraction (LNCaP cells; after 1 h at 37° C.): 12±1.9% | cellular uptake in vitro (LNCaP cells; after 1 h at 37° C.): 26.6±0.9% | PSMA-mediated cellular uptake (LNCaP cells; after 2h at 37° C.): approx. 35% | part of the cellular uptake being internalized (LNCaP cells; after 2h at 37° C.): 50-60%
